Key:
[1] = tested on: phosphorylation of Cdc2 Y15 (Wee1 substrate) in A427 cells; assay: Phosphorylated Cdc2 MSD Electrochemiluminescence Assay; assay type: cell-based; details: Homo sapiens, A-427, class symbols, read-out: A427 pCDC2 MSD IC50
Summary of the method: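 A427 cells (RPMI 1640, 10% FBS) treated 20 h after plating with 3-fold serial compound dilutions, in duplicate, 37 °C, 5% CO2; total incubation 6 h. Lysate Cdc2 pY15 read by MSD electrochemiluminescence sandwich immunoassay; % remaining signal normalised to DMSO (high) and reference Wee1 inhibitor (low) controls.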

Wee1 kinase domain = biological target: T1, Wee1 kinase domain (Homo sapiens, UniProt P30291); assay: Wee1 Kinase Biochemical Assay (ADP-Glo); details: class symbols; 1 nM Wee1 enzyme, 15 uM ATP, 4 hours at 25° C.
T1 construct: Wee1 kinase domain was purchased from Carna (catalog #05-177); purchased Carna 05-177
Summary of the method: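 Poly(Lys,Tyr 4:1) phosphorylation by the kinase domain is followed as ADP output (ADP-Glo) after 4 h at 25 °C, with ATP at 15 uM. Values are percent inhibition between vehicle and full-inhibition controls.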

T1 sequence (P30291 299-569 limits assumed): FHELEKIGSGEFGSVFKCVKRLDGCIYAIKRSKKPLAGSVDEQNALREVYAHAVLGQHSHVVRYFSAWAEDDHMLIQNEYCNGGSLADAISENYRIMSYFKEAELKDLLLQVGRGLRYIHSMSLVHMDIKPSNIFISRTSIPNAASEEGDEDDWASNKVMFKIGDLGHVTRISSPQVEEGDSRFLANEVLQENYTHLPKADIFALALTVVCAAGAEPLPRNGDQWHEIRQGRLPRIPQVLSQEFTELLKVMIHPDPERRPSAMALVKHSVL

IC50 [1] [nM]	IC50 (Wee1 kinase domain) [nM]	SMILES
100 to 1000	< 10	CN1CCN(c2ccc(Nc3ncc4c(n3)N(c3ccn(C)n3)[C@@H]3CC(C)(C)OC[C@]43C)cc2)CC1 (single isomer, unassigned) [Example 717]
1000 to 10000	< 10	CN1CCN(c2ccc(Nc3ncc4c(n3)N(c3ccn(C(F)(F)F)n3)[C@@H]3CC(C)(C)OC[C@]43C)cc2)CC1 (single isomer, unassigned) [Example 719]
100 to 1000	< 10	CC(C)n1ccc(N2c3nc(Nc4ccc(N5CCN(C)CC5)cc4)ncc3[C@@]3(C)COC(C)(C)C[C@@H]23)n1 (single isomer, unassigned) [Example 721]
100 to 1000	< 10	CN1CCN(c2ccc(Nc3ncc4c(n3)N(c3ccccn3)[C@@H]3CC(C)(C)OC[C@]43C)cc2)CC1 (single isomer, unassigned) [Example 722]
100 to 1000	< 10	C[C@H]1CCC(=O)N1c1cccc(N2c3nc(Nc4ccc(N5CC6(CN(C)C6)C5)cc4)ncc3[C@@]3(C)COC(C)(C)C[C@@H]23)n1 (single isomer, unassigned) [Example 725]
100 to 1000	< 10	CN1CCN(c2ccc(Nc3ncc4c(n3)N(c3cccc(N5C(=O)OCC5(C)C)n3)[C@@H]3CC(C)(C)OC[C@]43C)cc2)CC1 (single isomer, unassigned) [Example 728]
100 to 1000	< 10	CNCc1ccc(Nc2ncc3c(n2)N(c2cccc(N4C(=O)CC[C@@H]4C)n2)[C@@H]2CC(C)(C)OC[C@]32C)cc1 (single isomer, unassigned) [Example 730]
1000 to 10000	< 10	CN1CCN(c2ccc(Nc3ncc4c(n3)N(c3ccn(C5CC5)n3)[C@@H]3CC(C)(C)OC[C@]43C)cc2)CC1 (single isomer, unassigned) [Example 739]
1000 to 10000	< 10	CN1CCN(c2ccc(Nc3ncc4c(n3)N(c3ccn(C5COC5)n3)[C@@H]3CC(C)(C)OC[C@]43C)cc2)CC1 (single isomer, unassigned) [Example 742]
100 to 1000	< 10	CN1CCN(c2ccc(Nc3ncc4c(n3)N(c3cccc(S(C)(=O)=O)n3)[C@@H]3CC(C)(C)OC[C@]43C)cc2)CC1 (single isomer, unassigned) [Example 749]
100 to 1000	< 10	CN=[S@](C)(=O)c1cccc(N2c3nc(Nc4ccc(C5CCN(C)CC5)cc4)ncc3[C@@]3(C)COC(C)(C)C[C@@H]23)n1 (single isomer, unassigned) [Example 751]
100 to 1000	< 10	CN1CCN(c2ccc(Nc3ncc4c(n3)N(c3cccc(P(C)(C)=O)n3)[C@@H]3CC(C)(C)OC[C@]43C)cc2)CC1 (single isomer, unassigned) [Example 753]
< 100	< 10	CN1CC(c2ccc(Nc3ncc4c(n3)N(c3cccc(N=S5(=O)CCCC5)n3)[C@@H]3CC(C)(C)OC[C@]43C)cc2)C1 (single isomer, unassigned) [Example 754]
100 to 1000	< 10	CN1CCC(c2ccc(Nc3ncc4c(n3)N(c3cccc(S(C)(=O)=O)n3)[C@@H]3CC(C)(C)OC[C@]43C)cc2)CC1 (single isomer, unassigned) [Example 757]
100 to 1000	< 10	CNCc1cccc(N2c3nc(Nc4ccc(-n5nccn5)cc4)ncc3[C@@]3(C)COC(C)(C)C[C@@H]23)n1 (single isomer, unassigned) [Example 767]
< 100	< 10	CC1(C)C[C@H]2N(c3cccc(P(C)(C)=O)n3)c3nc(Nc4ccn(C5CCOCC5)c(=O)c4)ncc3[C@@]2(C)CO1 (single isomer, unassigned) [Example 780]
100 to 1000	< 10	C[C@H]1COC(=O)N1c1cccc(N2c3nc(Nc4ccn(C5CCOCC5)c(=O)c4)ncc3[C@@]3(C)COC(C)(C)C[C@@H]23)n1 (single isomer, unassigned) [Example 781]
100 to 1000	< 10	C[C@H]1COC(=O)N1c1cccc(N2c3nc(Nc4ccc(N5CC6(CN(C)C6)C5)cc4)ncc3[C@@]3(C)COCC[C@@H]23)n1 (single isomer, unassigned) [Example 784]
100 to 1000	< 10	CN1CC[C@@H](Oc2ccc(Nc3ncc4c(n3)N(c3cccc(C(C)(C)O)n3)C3CC(C)(C)OCC43C)cc2)C1 (stereo in doubt) [Example 423, 2-(6-((4bR,8aR)-4b,7,7-trimethyl-2-((4-(((R)-1-methylpyrrolidin-3-yl)oxy)phenyl)amino)-4b,7,8,8a-tetrahydropyrano[3′,4′:4,5]pyrrolo[2,3-d]pyrimidin-9(5H)-yl)pyridin-2-yl)propan-2-ol]

The remaining lines, values behind:

SMILES	IC50 [1] [nM]	IC50 (Wee1 kinase domain) [nM]
CN1CCN(c2ccc(Nc3ncc4c(n3)N(c3ccn(C(F)F)n3)[C@@H]3CC(C)(C)OC[C@]43C)cc2)CC1 (single isomer, unassigned) [Example 720]	100 to 1000	< 10
CN1CCN(c2ccc(Nc3ncc4c(n3)N(c3nccs3)[C@@H]3CC(C)(C)OC[C@]43C)cc2)CC1 (single isomer, unassigned) [Example 726]	100 to 1000	< 10
C[C@H]1CCC(=O)N1c1cccc(N2c3nc(Nc4ccc(C5CN(C)C5)cc4)ncc3[C@@]3(C)COC(C)(C)C[C@@H]23)n1 (single isomer, unassigned) [Example 727]	< 100	< 10
CN1CCN(c2ccc(Nc3ncc4c(n3)N(c3cccc(N5C(=O)CCC5(C)C)n3)[C@@H]3CC(C)(C)OC[C@]43C)cc2)CC1 (single isomer, unassigned) [Example 729]	100 to 1000	< 10
CCn1ccc(N2c3nc(Nc4ccc(N5CCN(C)CC5)cc4)ncc3[C@@]3(C)COC(C)(C)C[C@@H]23)n1 (single isomer, unassigned) [Example 744]	1000 to 10000	< 10
CC1(C)C[C@H]2N(c3cccc(N=S(C)(C)=O)n3)c3nc(N)ncc3[C@@]2(C)CO1 (single isomer, unassigned) [Example 746]	100 to 1000	< 10
C[C@H]1CCC(=O)N1c1cccc(N2c3nc(Nc4ccc(N5C[C@H]6C[C@@H](C5)N6C)cc4)ncc3[C@@]3(C)COC(C)(C)C[C@@H]23)n1 (single isomer, unassigned) [Example 748]	100 to 1000	< 10
CN=[S@@](C)(=O)c1cccc(N2c3nc(Nc4ccc(C5CCN(C)CC5)cc4)ncc3[C@@]3(C)COC(C)(C)C[C@@H]23)n1 (single isomer, unassigned) [Example 752]	100 to 1000	< 10
COc1cccc(N2c3nc(Nc4ccc(N5CCN(C)CC5)cc4)ncc3[C@@]3(C)COC(C)(C)C[C@@H]23)n1 (single isomer, unassigned) [Example 758]	100 to 1000	< 10
Cc1cccc(N2c3nc(Nc4ccc(N5CCN(C)CC5)cc4)ncc3[C@@]3(C)COC(C)(C)C[C@@H]23)n1 (single isomer, unassigned) [Example 759]	100 to 1000	< 10
CN=[S@@](C)(=O)c1cccc(N2c3nc(Nc4ccc(N5CCN(C)CC5)cc4)ncc3[C@@]3(C)COC(C)(C)C[C@@H]23)n1 (single isomer, unassigned) [Example 765]	100 to 1000	< 10
CN=[S@](C)(=O)c1cccc(N2c3nc(Nc4ccc(N5CCN(C)CC5)cc4)ncc3[C@@]3(C)COC(C)(C)C[C@@H]23)n1 (single isomer, unassigned) [Example 766]	100 to 1000	< 10
CC1(C)C[C@H]2N(c3cccc(N=S(C)(C)=O)n3)c3nc(NC(=O)OC4CCOCC4)ncc3[C@@]2(C)CO1 (single isomer, unassigned) [Example 772]	100 to 1000	< 10
CN1CCN(c2ccc(Nc3ncc4c(n3)N(c3cccc(C5CC5)n3)[C@@H]3CC(C)(C)OC[C@]43C)cc2)CC1 (single isomer, unassigned) [Example 774]	100 to 1000	< 10
CN1CC2(C1)CN(c1ccc(Nc3ncc4c(n3)N(c3cccc(P(C)(C)=O)n3)[C@@H]3CC(C)(C)OC[C@]43C)cc1)C2 (single isomer, unassigned) [Example 775]	100 to 1000	< 10
C[C@H]1CCC(=O)N1c1cccc(N2c3nc(Nc4ccc(N5CC6(CN(C)C6)C5)cc4)ncc3[C@@]3(C)COCC[C@@H]23)n1 (single isomer, unassigned) [Example 776]	100 to 1000	< 10
Cn1ccc(Nc2ncc3c(n2)N(c2cccc(P(C)(C)=O)n2)[C@@H]2CC(C)(C)OC[C@]32C)cc1=O (single isomer, unassigned) [Example 779]	< 100	< 10
CC1(C)C[C@H]2N(c3cccc(N=S(C)(C)=O)n3)c3nc(Nc4ccnnc4)ncc3[C@@]2(C)CO1 (single isomer, unassigned) [Example 799]	1000 to 10000	< 10
CN1CCC(n2ccc(Nc3ncc4c(n3)N(c3cccc(C(C)(C)O)n3)[C@@H]3CC(C)(C)OC[C@]43C)cc2=O)CC1 (single isomer, unassigned) [Example 810]	100 to 1000	< 10
CC1(C)CC2N(c3cccc([C@@H]4CCNC4)n3)c3nc(Nc4ccc(N5CCOCC5)cc4)ncc3C2(C)CO1 (stereo in doubt) [Example 539, (4bR,8aR)-4b,7,7-trimethyl-N-(4-morpholinophenyl)-9-(6-((R)-pyrrolidin-3-yl)pyridin-2-yl)-4b,5,7,8,8a,9-hexahydropyrano[3′,4′:4,5]pyrrolo[2,3-d]pyrimidin-2-amine]	100 to 1000	< 10
